Results as given in patent US10426800B2, “Adipose tissue-derived stem cells for veterinary use” (CELL4VET CORPORATION, priority 2008, dated 2019).

Assays:
Type in all cases: cell-based, rat
ADSC = assay: EdU labeling of ADSC in vitro
Experimental: FIG. 9 depicts dosage effect. EdU was added to ADSC at 0, 10, 20, and 50 μM. Cellular location was identified by DAPI staining of the nucleus (which would be blue if color photos were used). EdU was detected by Alexa 594 (which would be red if color photos were used).
FIG. 10 show the results of a time-course study. ADSC were labeled with 10 μM EdU and then split at 1 day, 4 days, 7 days, 14 days, and 21 days. […] Higher magnification (1000×) of cells at day 21 is shown in panel C.
ADSCs were grown on glass coverslips in DMEM supplemented with 10% bovine calf serum, penicillin, and streptomycin. For dosage effect, EdU was added to the culture media at 0, 10, 20 and 50 μM. Twenty-four hours later, cells were washed with PBS followed by addition of regular culture media (FIG. 9). For time-course study, ADSC were labeled with 10 μM EdU and then split at 1 day, 4 days, 7 days, 14 days and 21 days (FIG. 10).
After methanol fixation, cells were washed twice with PBS and then incubated in 3% BSA in PBS followed by 0.5% Triton® X-100 in PBS for 20 minutes at room temperature. The cells were then incubated with freshly made Click-it reaction cocktail (Invitrogen) for 30 minutes at room temperature in the dark. Cells were counterstained with DAPI, mounted in standard mounting media and imaged by fluorescence microscopy.

RADSC-1 cells [1] = assay: Effect of FGFR inhibitor on ADSC endothelial differentiation (LDL-uptake); conditions: EGM2 or FGF2/vitamin C-supplemented EBM2, in the presence of PD173074
Experimental: RADSC-1 cells were grown in EGM2 or EBM2 supplemented with FGF2 and vitamin C in the presence or absence of FGFR inhibitor PD173074. The cells were then assayed for LDL-uptake. […] RADSC-1 cells were also grown in VEGF/vitamin C-supplemented EBM2 for the purpose of excluding the involvement of VEGF signaling, as PD173074 is known to have a weak inhibitory effect on VEGF receptor. Experiments were repeated 3 times.

RADSC-1 cells [2] = assay: LDL-uptake of ADSC grown in subtraction or addition EGM2/EBM2 media; conditions: for ADSC's LDL-uptake ability on omission of the factor from EGM2: one week in subtracted EGM2 medium; for ADSC's LDL-uptake ability in EBM2 supplemented with the factor: one week in addition medium
Description: Each partially supplemented EGM2 is indicated by the omitted factor; for example, “-FGF” denotes EGM2 without FGF2. Experiments were repeated 3 times.
Experiments were repeated 3 times.
EGM2 medium is supplied by the manufacturer in the form of a basal medium (EBM2) and individual vials of supplemental factors. […] Specifically, we prepared “subtraction” EGM2 media by omitting one supplemental factor at a time.

Compound	ADSC's LDL-uptake ability on omission of the factor from EGM2 (RADSC-1 cells [2])	other results
C#Cc1cn([C@H]2C[C@H](O)[C@@H](CO)O2)c(=O)[nH]c1=O [EdU, 5-ethynyl-2-deoxyuridine]	–	EdU signal in the positively labeled cells (ADSC; 10 μM EdU, 1 to 21 days, P<0.01): decreased with time; cells EdU-labeled (ADSC; EdU 10, 20, 50 μM, regardless of concentration): approximately 50%
CCN(CC)CCCCNc1ncc2cc(-c3cc(OC)cc(OC)c3)c(NC(=O)NC(C)(C)C)nc2n1 [PD173074]	–	acquisition of LDL-uptake ability (RADSC-1 cells [1]): unable to do so
C[C@]12CCC(=O)C=C1CC[C@@H]1[C@@H]2[C@@H](O)C[C@@]2(C)[C@H]1CC[C@]2(O)C(=O)CO [hydrocortisone]	essentially no effect	–
O=C1O[C@H]([C@@H](O)CO)C(O)=C1O [vitamin C]	greatly diminished	ADSC's LDL-uptake ability in EBM2 supplemented with the factor (RADSC-1 cells [2]): still somewhat effective, but at a much reduced level
EGF: growth factor, supplemental factor of EGM2 medium	essentially no effect	–
FGF2: growth factor, supplemental factor of EGM2 medium	greatly diminished	ADSC's LDL-uptake ability in EBM2 supplemented with the factor (RADSC-1 cells [2]): still effective, albeit at a reduced level
VEGF	essentially no effect	–
heparin	essentially no effect	–
